Data published in patent US20220324835A1 (Nurix Therapeutics, Inc., priority 2018, published 2022).

What was measured:
Cbl-b [1] = molecular target: T1, Cbl-b (Homo sapiens, UniProt Q13191); experiment: Cbl-b inhibition assay (Cbl-b activity assay, FRET, Biological Example 1; 100 mM NaCl, 60 nM Src kinase); assay type: biochemical; conditions: upper bound stated in text lists; read-out: IC50 values in the Cbl-b inhibition assay of Biological Example 1
Summary of the method: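 Steps: Src kinase phosphorylates N-terminal biotinylated Avi-tagged Cbl-b; phosphorylated Cbl-b binds Bodipy-fluorescein ubiquitin-loaded UbcH5B; streptavidin-terbium on Cbl-b sits close to the fluorescein label, producing FRET. Inhibitors block UbcH5B-Ub binding.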

Cbl-b [2] = molecular target: T1, Cbl-b; experiment: Cbl-b activity assay (Cbl-b inhibition assay), TR-FRET of Cbl-b interaction with UbcH5B-Ub; assay type: biochemical; conditions: assay buffer with 100 mM NaCl, 60 nM Src kinase; read-out: Cbl-b activity IC50
Summary of the method: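 TR-FRET readout of Cbl-b binding to Bodipy-fluorescein N-terminally labeled Ub conjugated to UbcH5B C85K, measured with compound present. After compound incubation, 60 nM Src kinase with 1 mM ATP and 5 mM MgCl2 (final) was added for 1.5 h, then a further 1 h incubation; asterisked values used 50 mM NaCl buffer and 30 nM Src.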

T-cell [3] = experiment: IL-2 secretion from T-cells stimulated with anti-CD3 antibody alone (Biological Example 2); assay type: cell-based, human; conditions: Homo sapiens, T-cell; 1 μM Cbl-b inhibitor; fold change over baseline (anti-CD3/anti-CD28 stimulated T-cells without inhibitor); read-out: IL-2 secretion Anti-CD3 stimulation
T-cell [4] = experiment: CD25 cell surface staining on T-cells stimulated with anti-CD3 antibody alone (Biological Example 2); assay type: cell-based, human; conditions: Homo sapiens, T-cell; 1 μM Cbl-b inhibitor; fold change over baseline (anti-CD3/anti-CD28 stimulated T-cells without inhibitor); read-out: CD25 staining Anti-CD3 stimulation
T-cell [5] = experiment: IL-2 secretion from T-cells co-stimulated with anti-CD3 and anti-CD28 antibody (Biological Example 2); assay type: cell-based, human; conditions: Homo sapiens, T-cell, fold change over baseline (anti-CD3/anti-CD28 stimulated T-cells without inhibitor), read-out: IL-2 secretion Anti-CD3/Anti-CD28 stimulation; for fold induction at 0.3 µM: 0.3 μM Cbl-b inhibitor; for fold induction at 1 µM: 1 μM Cbl-b inhibitor
Summary of the method: (§1)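 No assay protocol given; T-cells stimulated with anti-CD3 alone or anti-CD3 plus anti-CD28, with or without Cbl-b inhibitor. Activation read as IL-2 secretion or CD25 surface staining, expressed as fold over baseline from uninhibited cells […].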

T-cell [6] = experiment: CD25 cell surface staining on T-cells co-stimulated with anti-CD3 and anti-CD28 antibody (Biological Example 2); assay type: cell-based, human; conditions: Homo sapiens, T-cell, fold change over baseline (anti-CD3/anti-CD28 stimulated T-cells without inhibitor), read-out: CD25 staining Anti-CD3/Anti-CD28 stimulation; for fold induction at 0.3 µM: 0.3 μM Cbl-b inhibitor; for fold induction at 1 µM: 1 μM Cbl-b inhibitor
Summary of the method: as §1

T1 sequence (Q13191 36-427): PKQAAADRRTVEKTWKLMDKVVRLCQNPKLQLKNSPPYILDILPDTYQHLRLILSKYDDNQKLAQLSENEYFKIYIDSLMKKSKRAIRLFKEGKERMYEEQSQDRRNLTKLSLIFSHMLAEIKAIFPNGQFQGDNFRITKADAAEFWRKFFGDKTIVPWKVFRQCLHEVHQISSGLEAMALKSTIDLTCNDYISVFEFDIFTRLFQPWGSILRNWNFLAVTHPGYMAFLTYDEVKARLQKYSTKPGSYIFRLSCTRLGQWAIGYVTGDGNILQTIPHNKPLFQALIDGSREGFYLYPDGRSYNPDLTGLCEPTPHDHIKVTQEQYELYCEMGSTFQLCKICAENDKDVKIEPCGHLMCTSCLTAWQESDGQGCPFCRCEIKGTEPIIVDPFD

SMILES | IC50 (Cbl-b [1]) [µM] | IC50 (Cbl-b [2]) [µM] | fold induction at 1 µM (T-cell [3]) | fold induction at 1 µM (T-cell [4]) | fold induction at 0.3 µM (T-cell [5]) | fold induction at 1 µM (T-cell [5]) | fold induction at 0.3 µM (T-cell [6]) | fold induction at 1 µM (T-cell [6])
Cn1cnnc1CC1(c2cccc(N3Cc4c(cc(CN5CCC(C#N)CC5)cc4C(F)(F)F)C3=O)c2)COC1 [Example 628, 1-((2-(3-(3-((4-methyl-4H-1,2,4-triazol-3-yl)methyl)oxetan-3-yl)phenyl)-3-oxo-7-(trifluoromethyl)isoindolin-5-yl)methyl)piperidine-4-carbonitrile] | ≤ 0.1 | < 0.1 | > 0.201 | > 1 | 5 to 7.5 | > 7.5 | 1.31 to 1.5 | 1.31 to 1.5
CCOC1CCCN(Cc2cc3c(c(C(F)(F)F)c2)CN(c2cccc(C4(Cc5nncn5C)COC4)c2)C3=O)C1 (stereo not shown) [Example 629, 6-((3-ethoxypiperidin-1-yl)methyl)-2-(3-(3-((4-methyl-4H-1,2,4-triazol-3-yl)methyl)oxetan-3-yl)phenyl)-4-(trifluoromethyl)isoindolin-1-one] | ≤ 0.1 | < 0.1 | > 0.201 | > 1 | > 7.5 | > 7.5 | 1.51 to 1.75 | 1.51 to 1.75
COC1CCN(Cc2cc3c(c(C(F)(F)F)c2)CN(c2cccc(C4(Cc5nncn5C)COC4)c2)C3=O)CC1 [Example 632, 6-((4-methoxypiperidin-1-yl)methyl)-2-(3-(3-((4-methyl-4H-1,2,4-triazol-3-yl)methyl)oxetan-3-yl)phenyl)-4-(trifluoromethyl)isoindolin-1-one] | ≤ 0.1 | < 0.1 | > 0.201 | > 1 | > 7.5 | > 7.5 | 1.31 to 1.5 | 1.51 to 1.75
Cn1cnnc1CC1(c2cccc(N3Cc4c(cc(CN5CCC(F)(F)CC5)cc4C(F)(F)F)C3=O)c2)COC1 [Example 633, 6-((4,4-difluoropiperidin-1-yl)methyl)-2-(3-(3-((4-methyl-4H-1,2,4-triazol-3-yl)methyl)oxetan-3-yl)phenyl)-4-(trifluoromethyl)isoindolin-1-one] | ≤ 0.1 | < 0.1 | > 0.201 | > 1 | > 7.5 | > 7.5 | 1.31 to 1.5 | 1.31 to 1.5
CC1CCN(Cc2cc3c(c(C(F)(F)F)c2)CN(c2cccc(C4(Cc5nncn5C)COC4)c2)C3=O)CC1(F)F (stereo not shown) [Example 635, 6-((3,3-difluoro-4-methylpiperidin-1-yl)methyl)-2-(3-(3-((4-methyl-4H-1,2,4-triazol-3-yl)methyl)oxetan-3-yl)phenyl)-4-(trifluoromethyl)isoindolin-1-one] | ≤ 0.1 | < 0.1 | > 0.201 | > 1 | > 7.5 | > 7.5 | 1.31 to 1.5 | 1.31 to 1.5
Cn1cnnc1CC1(c2cccc(N3Cc4c(cc(CN5CCC6(CC6)C(F)(F)C5)cc4C(F)(F)F)C3=O)c2)COC1 [Example 636, 6-((4,4-difluoro-6-azaspiro[2.5]octan-6-yl)methyl)-2-(3-(3-((4-methyl-4H-1,2,4-triazol-3-yl)methyl)oxetan-3-yl)phenyl)-4-(trifluoromethyl)isoindolin-1-one] | ≤ 0.1 | < 0.1 | > 0.201 | > 1 | 2.51 to 5 | > 7.5 | 1.31 to 1.5 | 1.31 to 1.5
COC1CCCN(Cc2cc3c(c(C(F)(F)F)c2)CN(c2cccc(C4(Cc5nncn5C)COC4)c2)C3=O)C1 (stereo not shown) [Example 637, 6-((3-methoxypiperidin-1-yl)methyl)-2-(3-(3-((4-methyl-4H-1,2,4-triazol-3-yl)methyl)oxetan-3-yl)phenyl)-4-(trifluoromethyl)isoindolin-1-one] | ≤ 0.1 | < 0.1 | > 0.201 | > 1 | > 7.5 | > 7.5 | 1.31 to 1.5 | 1.51 to 1.75
Cn1cnnc1CC1(c2cccc(N3Cc4c(cc(CN5CCC6(CC5)CC6)cc4C(F)(F)F)C3=O)c2)COC1 [Example 641, 6-((6-azaspiro[2.5]octan-6-yl)methyl)-2-(3-(3-((4-methyl-4H-1,2,4-triazol-3-yl)methyl)oxetan-3-yl)phenyl)-4-(trifluoromethyl)isoindolin-1-one] | ≤ 0.1 | < 0.1 | > 0.201 | > 1 | > 7.5 | > 7.5 | 1.51 to 1.75 | 1.51 to 1.75
Cn1cnnc1CC1(c2cccc(N3Cc4c(cc(CN5CCC(C)(C#N)CC5)cc4C(F)(F)F)C3=O)c2)COC1 [Example 642, 4-methyl-1-((2-(3-(3-((4-methyl-4H-1,2,4-triazol-3-yl)methyl)oxetan-3-yl)phenyl)-3-oxo-7-(trifluoromethyl)isoindolin-5-yl)methyl)piperidine-4-carbonitrile] | ≤ 0.1 | < 0.1 | 0.151 to 0.2 | > 1 | > 7.5 | > 7.5 | 1.31 to 1.5 | 1.31 to 1.5
Cn1cnnc1CC1(c2cccc(N3Cc4c(cc(CN5CCC(C(F)F)CC5)cc4C(F)(F)F)C3=O)c2)COC1 [Example 643, 6-((4-(difluoromethyl)piperidin-1-yl)methyl)-2-(3-(3-((4-methyl-4H-1,2,4-triazol-3-yl)methyl)oxetan-3-yl)phenyl)-4-(trifluoromethyl)isoindolin-1-one] | ≤ 0.1 | < 0.1 | 0.151 to 0.2 | > 1 | 5 to 7.5 | > 7.5 | 1.31 to 1.5 | 1.31 to 1.5
Cn1cnnc1CC1(c2cccc(N3Cc4c(cc(CN5CCC6CC6C5)cc4C(F)(F)F)C3=O)c2)COC1 (stereo not shown) [Example 646, 6-((3-azabicyclo[4.1.0]heptan-3-yl)methyl)-2-(3-(3-((4-methyl-4H-1,2,4-triazol-3-yl)methyl)oxetan-3-yl)phenyl)-4-(trifluoromethyl)isoindolin-1-one] | ≤ 0.1 | < 0.1 | > 0.201 | > 1 | > 7.5 | > 7.5 | 1.31 to 1.5 | 1.31 to 1.5
Cc1nc2c(o1)CCN(Cc1cc3c(c(C(F)(F)F)c1)CN(c1cccc(C4(Cc5nncn5C)COC4)c1)C3=O)C2 [Example 649, 2-(3-(3-((4-methyl-4H-1,2,4-triazol-3-yl)methyl)oxetan-3-yl)phenyl)-6-((2-methyl-6,7-dihydrooxazolo[4,5-c]pyridin-5(4H)-yl)methyl)-4-(trifluoromethyl)isoindolin-1-one] | ≤ 0.1 | < 0.1 | > 0.201 | > 1 | 5 to 7.5 | > 7.5 | 1.01 to 1.3 | 1.31 to 1.5
Cn1cnnc1CC1(c2cccc(N3Cc4c(cc(CN5CCc6ccccc6C5)cc4C(F)(F)F)C3=O)c2)COC1 [Example 650, 6-((3,4-dihydroisoquinolin-2(1H)-yl)methyl)-2-(3-(3-((4-methyl-4H-1,2,4-triazol-3-yl)methyl)oxetan-3-yl)phenyl)-4-(trifluoromethyl)isoindolin-1-one] | ≤ 0.1 | < 0.1 | > 0.201 | > 1 | 5 to 7.5 | > 7.5 | 1.01 to 1.3 | 1.31 to 1.5
Cn1cnnc1CC1(c2cccc(N3Cc4c(cc(CN5CCCc6c5cnn6C)cc4C(F)(F)F)C3=O)c2)COC1 [Example 651] | ≤ 0.1 | < 0.1 | > 0.201 | > 1 | 5 to 7.5 | > 7.5 | 1.01 to 1.3 | 1.01 to 1.3
